Measurements published in patent US10160747B2, “Compounds and methods for kinase modulation, and indications therefor” (Plexxikon Inc., priority 2016, dated 2018).

The compounds below were run against T1, c-KIT (Homo sapiens, UniProt P10721) (assay: c-KIT recombinant enzyme kinase assay (AlphaScreen)). Details: 100 ATP, 8 pt.
T1 construct: purchased Millipore 14-559K
Assay type: biochemical
In short: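 AlphaScreen proximity signal at 580 nm, from PY20 acceptor and streptavidin donor beads, measures tyrosine phosphorylation of 30 nM biotin-poly(Glu4-Tyr) peptide by recombinant kinase. ATP: 10 μM (FLT3 mutants), 100 μM (c-KIT). IC50 from loss of signal.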

T1 sequence (P10721 26-976): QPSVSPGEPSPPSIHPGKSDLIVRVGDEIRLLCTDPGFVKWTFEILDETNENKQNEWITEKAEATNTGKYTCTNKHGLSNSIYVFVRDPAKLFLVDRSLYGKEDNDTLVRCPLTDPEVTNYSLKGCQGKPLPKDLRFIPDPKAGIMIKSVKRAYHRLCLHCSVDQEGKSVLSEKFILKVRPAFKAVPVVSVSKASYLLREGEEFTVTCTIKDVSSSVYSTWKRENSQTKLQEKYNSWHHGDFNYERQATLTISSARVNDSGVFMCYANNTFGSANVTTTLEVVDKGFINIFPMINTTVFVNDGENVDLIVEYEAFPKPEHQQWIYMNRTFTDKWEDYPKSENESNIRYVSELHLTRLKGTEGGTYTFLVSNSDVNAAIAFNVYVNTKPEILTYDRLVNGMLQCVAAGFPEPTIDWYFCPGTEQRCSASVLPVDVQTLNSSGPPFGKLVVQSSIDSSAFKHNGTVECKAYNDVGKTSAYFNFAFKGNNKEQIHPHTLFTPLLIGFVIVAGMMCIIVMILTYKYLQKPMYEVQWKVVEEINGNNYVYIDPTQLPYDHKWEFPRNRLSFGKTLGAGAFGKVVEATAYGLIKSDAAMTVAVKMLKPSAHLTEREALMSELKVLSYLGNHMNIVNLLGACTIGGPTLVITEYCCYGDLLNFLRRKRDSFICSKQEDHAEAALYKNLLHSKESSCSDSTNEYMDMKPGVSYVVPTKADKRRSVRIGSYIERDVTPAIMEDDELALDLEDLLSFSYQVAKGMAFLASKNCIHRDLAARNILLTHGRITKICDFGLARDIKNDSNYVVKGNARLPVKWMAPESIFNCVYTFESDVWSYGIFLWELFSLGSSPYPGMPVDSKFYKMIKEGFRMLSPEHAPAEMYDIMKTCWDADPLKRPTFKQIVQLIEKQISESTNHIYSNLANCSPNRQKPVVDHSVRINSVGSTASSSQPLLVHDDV

**Q.** `COc1ncc(NC(=O)Cc2ccc(-c3cnc4[nH]c(-c5ccnc(C#N)c5)cc4c3)cc2F)cc1C(F)(F)F` [Compound P-0013, 2-[4-[2-(2-cyano-4-pyridyl)-1H-pyrrolo[2,3-b]pyridin-5-yl]-2-fluoro-phenyl]-N-[6-methoxy-5-(trifluoromethyl)-3-pyridyl]acetamide] was tested. Which IC50 did it give?
**A.** 0.0001 to 10 µM

**Q.** `Cn1cc(Nc2ncc(-c3ccc(CC(=O)Nc4cc(C(F)(F)F)ccn4)cc3F)cn2)cn1` [Compound P-0017, 2-[3-fluoro-4-[2-[(1-methylpyrazol-4-yl)amino]pyrimidin-5-yl]phenyl]-N-[4-(trifluoromethyl)-2-pyridyl]acetamide] was tested. Which IC50 did it give?
**A.** 0.0001 to 10 µM

**Q.** How did the IC50 turn out when `Cn1cnc(Nc2ncc(-c3ccc(CC(=O)Nc4cc(C(F)(F)F)ccn4)cc3F)cn2)c1` [Compound P-0018, 2-[3-fluoro-4-[2-[(1-methylimidazol-4-yl)amino]pyrimidin-5-yl]phenyl]-N-[4-(trifluoromethyl)-2-pyridyl]acetamide] was run?
**A.** 0.0001 to 10 µM

**Q.** For `Cn1cc(Nc2ncc(-c3cc(F)c(CC(=O)Nc4cc(C(F)(F)F)ccn4)cc3F)cn2)cn1` [Compound P-0019, 2-[2,5-difluoro-4-[2-[(1-methylpyrazol-4-yl)amino]pyrimidin-5-yl]phenyl]-N-[4-(trifluoromethyl)-2-pyridyl]acetamide], which IC50 is on record?
**A.** 0.0001 to 10 µM

**Q.** For `Cn1cnc(Nc2ncc(-c3cc(F)c(CC(=O)Nc4cc(C(F)(F)F)ccn4)cc3F)cn2)c1` [Compound P-0020, 2-[2,5-difluoro-4-[2-[(1-methylimidazol-4-yl)amino]pyrimidin-5-yl]phenyl]-N-[4-(trifluoromethyl)-2-pyridyl]acetamide], which IC50 is on record?
**A.** 0.0001 to 10 µM

**Q.** `O=C(Cc1cc(F)c(-c2cnc(Nc3cnn(C(F)F)c3)nc2)cc1F)Nc1cc(C(F)(F)F)ccn1` [Compound P-0021, 2-[4-[2-[[1-(difluoromethyl)pyrazol-4-yl]amino]pyrimidin-5-yl]-2,5-difluoro-phenyl]-N-[4-(trifluoromethyl)-2-pyridyl]acetamide] was tested. Which IC50 did it give?
**A.** 0.0001 to 10 µM

**Q.** How did the IC50 turn out when `Cn1cnc(Nc2ncc(-c3ccc(CC(=O)Nc4cc(C(F)(F)F)ccn4)cc3)cn2)c1` [Compound P-0022, 2-[4-[2-[(1-methylimidazol-4-yl)amino]pyrimidin-5-yl]phenyl]-N-[4-(trifluoromethyl)-2-pyridyl]acetamide] was run?
**A.** 0.0001 to 10 µM

**Q.** How did the IC50 turn out when `O=C(Cc1ccc(-c2cnc(Nc3cnn(C(F)F)c3)nc2)cc1)Nc1cc(C(F)(F)F)ccn1` [Compound P-0023, 2-[4-[2-[[1-(difluoromethyl)pyrazol-4-yl]amino]pyrimidin-5-yl]phenyl]-N-[4-(trifluoromethyl)-2-pyridyl]acetamide] was run?
**A.** 0.0001 to 10 µM

**Q.** For `O=C(Cc1ccc(-c2cnc3[nH]c(-c4ccnc(N5CCOCC5)c4)cc3c2)c(F)c1)Nc1cncc(C(F)(F)F)c1` [Compound P-0201, 2-[3-fluoro-4-[2-(2-morpholino-4-pyridyl)-1H-pyrrolo[2,3-b]pyridin-5-yl]phenyl]-N-[5-(trifluoromethyl)-3-pyridyl]acetamide], which IC50 is on record?
**A.** 0.0001 to 10 µM

**Q.** Which IC50 does the source give for `CCOc1n[nH]c2ncc(-c3ccc(CC(=O)Nc4cnc(OC)c(C(F)(F)F)c4)cc3F)cc12` [Compound P-0202, 2-[4-(3-ethoxy-1H-pyrazolo[3,4-b]pyridin-5-yl)-3-fluoro-phenyl]-N-[6-methoxy-5-(trifluoromethyl)-3-pyridyl]acetamide] here?
**A.** 0.0001 to 10 µM

**Q.** How did the IC50 turn out when `COc1ncc(NC(=O)Cc2ccc(-c3cnc4[nH]nc(N)c4c3)c(F)c2)cc1C(F)(F)F` [Compound P-0203, 2-[4-(3-amino-1H-pyrazolo[3,4-b]pyridin-5-yl)-3-fluoro-phenyl]-N-[6-methoxy-5-(trifluoromethyl)-3-pyridyl]acetamide] was run?
**A.** 0.0001 to 10 µM

**Q.** `CC(C)(O)C#Cc1cc2cc(-c3ccc(CC(=O)Nc4cncc(C(F)(F)F)c4)cc3)cnc2[nH]1` [Compound P-0204, 2-[4-[2-(3-hydroxy-3-methyl-but-1-ynyl)-1H-pyrrolo[2,3-b]pyridin-5-yl]phenyl]-N-[5-(trifluoromethyl)-3-pyridyl]acetamide] was tested. Which IC50 did it give?
**A.** 0.0001 to 10 µM

**Q.** Which IC50 does the source give for `Cn1cc(Nc2ncc(-c3ccc(CC(=O)Nc4cncc(C(F)(F)F)c4)cc3F)cn2)cn1` [Compound P-0205, 2-[3-fluoro-4-[2-[(1-methylpyrazol-4-yl)amino]pyrimidin-5-yl]phenyl]-N-[5-(trifluoromethyl)-3-pyridyl]acetamide] here?
**A.** 0.0001 to 10 µM

**Q.** `Cn1cc(Nc2ncc(-c3cc(F)c(CC(=O)Nc4cncc(C(F)(F)F)c4)cc3F)cn2)cn1` [Compound P-0207, 2-[2,5-difluoro-4-[2-[(1-methylpyrazol-4-yl)amino]pyrimidin-5-yl]phenyl]-N-[5-(trifluoromethyl)-3-pyridyl]acetamide] was tested. Which IC50 did it give?
**A.** 0.0001 to 10 µM

**Q.** For `COc1ncc(NC(=O)Cc2cc(F)c(-c3cnc(Nc4cnn(C)c4)nc3)cc2F)cc1C(F)(F)F` [Compound P-0208, 2-[2,5-difluoro-4-[2-[(1-methylpyrazol-4-yl)amino]pyrimidin-5-yl]phenyl]-N-[6-methoxy-5-(trifluoromethyl)-3-pyridyl]acetamide], which IC50 is on record?
**A.** 0.0001 to 10 µM

**Q.** With `O=C(Cc1ccc(-c2cnc(Nc3cnn(C(F)F)c3)nc2)cc1)Nc1cncc(C(F)(F)F)c1` [Compound P-0209, 2-[4-[2-[[1-(difluoromethyl)pyrazol-4-yl]amino]pyrimidin-5-yl]phenyl]-N-[5-(trifluoromethyl)-3-pyridyl]acetamide] as the compound, how does the IC50 read?
**A.** 0.0001 to 10 µM

**Q.** With `Cc1ncc(NC(=O)Cc2ccc(-c3cnc(Nc4cnn(C(F)F)c4)nc3)cc2)cc1C(F)(F)F` [Compound P-0210, 2-[4-[2-[[1-(difluoromethyl)pyrazol-4-yl]amino]pyrimidin-5-yl]phenyl]-N-[6-methyl-5-(trifluoromethyl)-3-pyridyl]acetamide] as the compound, how does the IC50 read?
**A.** 0.0001 to 10 µM

**Q.** For `COc1ncc(NC(=O)Cc2ccc(-c3cnc(Nc4cnn(C(F)F)c4)nc3)cc2)cc1C(F)(F)F` [Compound P-0211, 2-[4-[2-[[1-(difluoromethyl)pyrazol-4-yl]amino]pyrimidin-5-yl]phenyl]-N-[6-methoxy-5-(trifluoromethyl)-3-pyridyl]acetamide], which IC50 is on record?
**A.** 0.0001 to 10 µM

**Q.** Which IC50 does the source give for `COc1ncc(NC(=O)Cc2ccc(-c3cnc4[nH]nc(OC)c4c3)cc2)cc1C(F)(F)F` [Compound P-0212, 2-[4-(3-methoxy-1H-pyrazolo[3,4-b]pyridin-5-yl)phenyl]-N-[6-methoxy-5-(trifluoromethyl)-3-pyridyl]acetamide] here?
**A.** 0.0001 to 10 µM

**Q.** Which IC50 does the source give for `CCOc1n[nH]c2ncc(-c3ccc(CC(=O)Nc4cnc(OC)c(C(F)(F)F)c4)cc3)cc12` [Compound P-0213, 2-(4-(3-ethoxy-1H-pyrazolo[3,4-b]pyridin-5-yl)phenyl)-N-(6-methoxy-5-(trifluoromethyl)pyridin-3-yl)acetamide] here?
**A.** 0.0001 to 10 µM

**Q.** With `COc1ncc(NC(=O)Cc2ccc(-c3cnc4[nH]c(C#CC(C)(C)O)cc4c3)cc2)cc1C(F)(F)F` [Compound P-0214, 2-(4-(2-(3-hydroxy-3-methylbut-1-yn-1-yl)-1H-pyrrolo[2,3-b]pyridin-5-yl)phenyl)-N-(6-methoxy-5-(trifluoromethyl)pyridin-3-yl)acetamide] as the compound, how does the IC50 read?
**A.** 0.0001 to 10 µM

**Q.** For `COc1ncc(NC(=O)Cc2ccc(-c3cnc4[nH]nc(NC(=O)C(F)(F)F)c4c3)cc2)cc1C(F)(F)F` [Compound P-0215, 2,2,2-trifluoro-N-[5-[4-[2-[[6-methoxy-5-(trifluoromethyl)-3-pyridyl]amino]-2-oxo-ethyl]phenyl]-1H-pyrazolo[3,4-b]pyridin-3-yl]acetamide], which IC50 is on record?
**A.** 0.0001 to 10 µM

**Q.** How did the IC50 turn out when `COc1ncc(NC(=O)Cc2ccc(-c3cnc4[nH]nc(N)c4c3)cc2)cc1C(F)(F)F` [Compound P-0216, 2-(4-(3-amino-1H-pyrazolo[3,4-b]pyridin-5-yl)phenyl)-N-(6-methoxy-5-(trifluoromethyl)pyridin-3-yl)acetamide] was run?
**A.** 0.0001 to 10 µM

**Q.** With `CCOc1n[nH]c2ncc(-c3ccc(CC(=O)Nc4cnc(C)c(C(F)(F)F)c4)cc3)cc12` [Compound P-0217, 2-[4-(3-ethoxy-1H-pyrazolo[3,4-b]pyridin-5-yl)phenyl]-N-[6-methyl-5-(trifluoromethyl)-3-pyridyl]acetamide] as the compound, how does the IC50 read?
**A.** 0.0001 to 10 µM

**Q.** `COc1n[nH]c2ncc(-c3ccc(CC(=O)Nc4cnc(C)c(C(F)(F)F)c4)cc3)cc12` [Compound P-0218, 2-[4-(3-methoxy-1H-pyrazolo[3,4-b]pyridin-5-yl)phenyl]-N-[6-methyl-5-(trifluoromethyl)-3-pyridyl]acetamide] was tested. Which IC50 did it give?
**A.** 0.0001 to 10 µM

**Q.** `Cc1ncc(NC(=O)Cc2ccc(-c3cnc4[nH]c(C#CC(C)(C)O)cc4c3)cc2)cc1C(F)(F)F` [Compound P-0220, 2-[4-[2-(3-hydroxy-3-methyl-but-1-ynyl)-1H-pyrrolo[2,3-b]pyridin-5-yl]phenyl]-N-[6-methyl-5-(trifluoromethyl)-3-pyridyl]acetamide] was tested. Which IC50 did it give?
**A.** 0.0001 to 10 µM

**Q.** `COc1ncc(NC(=O)Cc2ccc(-c3cnc(Nc4cn[nH]c4C)nc3)cc2)cc1C(F)(F)F` [Compound P-0221, N-[6-methoxy-5-(trifluoromethyl)-3-pyridyl]-2-[4-[2-[(5-methyl-1H-pyrazol-4-yl)amino]pyrimidin-5-yl]phenyl]acetamide] was tested. Which IC50 did it give?
**A.** 0.0001 to 10 µM

**Q.** How did the IC50 turn out when `COCCn1cc(Nc2ncc(-c3ccc(CC(=O)Nc4cc(C(F)(F)F)ccn4)cc3)cn2)cn1` [Compound P-0222, 2-[4-[2-[[1-(2-methoxyethyl)pyrazol-4-yl]amino]pyrimidin-5-yl]phenyl]-N-[4-(trifluoromethyl)-2-pyridyl]acetamide] was run?
**A.** 0.0001 to 10 µM

**Q.** Which IC50 does the source give for `Cc1nn(C)cc1Nc1ncc(-c2ccc(CC(=O)Nc3cnc(C)c(C(F)(F)F)c3)cc2)cn1` [Compound P-0228, 2-[4-[2-[(1,3-dimethylpyrazol-4-yl)amino]pyrimidin-5-yl]phenyl]-N-[6-methyl-5-(trifluoromethyl)-3-pyridyl]acetamide] here?
**A.** 0.0001 to 10 µM

**Q.** Which IC50 does the source give for `Cc1ncc(NC(=O)Cc2ccc(-c3cnc(Nc4cnn(C)c4C)nc3)cc2)cc1C(F)(F)F` [Compound P-0229, 2-[4-[2-[(1,5-dimethylpyrazol-4-yl)amino]pyrimidin-5-yl]phenyl]-N-[6-methyl-5-(trifluoromethyl)-3-pyridyl]acetamide] here?
**A.** 0.0001 to 10 µM

**Q.** Which IC50 does the source give for `COc1ncc(NC(=O)Cc2ccc(-c3cnc4[nH]nc(Cl)c4c3)cc2)cc1C(F)(F)F` [Compound P-0230, 2-[4-(3-chloro-1H-pyrazolo[3,4-b]pyridin-5-yl)phenyl]-N-[6-methoxy-5-(trifluoromethyl)-3-pyridyl]acetamide] here?
**A.** 0.0001 to 10 µM
